21 compounds from patent US12692254B2, “Benzimidazole inhibitors of PAD enzymes” (BRISTOL-MYERS SQUIBB COMPANY, priority 2018, dated 2026) can be followed below.

What is called IC50 is the point on the concentration scale where inhibition reaches its midpoint.

The target of the assay is human PAD4 (hPAD4) (Homo sapiens, UniProt Q9UM07). Put plainly: RFMS human PAD4 functional assay (rapid-fire mass spectrum). The conditions noted are these: 5 nM hPAD4 enzyme, 250 μM BAEE, 50 μM Calcium; 30 min preincubation, 90 min reaction at 37° C. The assay is classed as biochemical. The procedure, abridged:
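PAD4 (10 nM) preincubated 30 min with compound (top final 50 μM), then BAEE substrate added in pH 7.5 HEPES buffer with DTT, 50 μM calcium, TPEN; 90 min at 37° C. After TCA quench, citrulline derivatized with phenyl glyoxal (4 mM final, 30 min, 37° C) and quantified by RapidFire MS against internal standard.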

human PAD4 (hPAD4), sequence (Q9UM07 whole entry): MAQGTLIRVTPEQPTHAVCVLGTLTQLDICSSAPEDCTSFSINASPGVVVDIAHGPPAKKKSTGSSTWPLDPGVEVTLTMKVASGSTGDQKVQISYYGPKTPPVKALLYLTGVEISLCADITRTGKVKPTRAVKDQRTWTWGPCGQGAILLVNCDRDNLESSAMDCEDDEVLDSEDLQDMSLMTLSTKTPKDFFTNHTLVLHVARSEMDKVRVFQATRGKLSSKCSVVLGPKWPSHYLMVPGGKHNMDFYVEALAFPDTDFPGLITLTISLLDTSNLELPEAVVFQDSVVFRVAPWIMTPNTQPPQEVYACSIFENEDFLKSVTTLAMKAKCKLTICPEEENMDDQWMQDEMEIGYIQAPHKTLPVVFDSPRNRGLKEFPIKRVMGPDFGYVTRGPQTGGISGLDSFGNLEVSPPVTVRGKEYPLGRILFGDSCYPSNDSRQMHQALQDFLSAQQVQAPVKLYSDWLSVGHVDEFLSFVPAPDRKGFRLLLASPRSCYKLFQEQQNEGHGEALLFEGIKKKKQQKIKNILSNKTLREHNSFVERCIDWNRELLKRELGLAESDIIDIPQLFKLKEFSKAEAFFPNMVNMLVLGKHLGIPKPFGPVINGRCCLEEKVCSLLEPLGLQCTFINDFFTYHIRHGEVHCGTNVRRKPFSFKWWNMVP

As to `COc1cc(C(=O)N2C[C@H]3CC[C@@H]2[C@@H]3N)cc2nc(-c3cc4ccccc4n3C)n(CC3CN(c4cncc(C#N)c4)C3)c12` [Example 22, 5-[3-({5-[(1R,4R,7R)-7-amino-2-azabicyclo[2.2.1]heptane-2-carbonyl]-7-methoxy-2-(1-methyl-1H-indol-2-yl)-1H-1,3-benzodiazol-1-yl}methyl)azetidin-1-yl]pyridine-3-carbonitrile], the IC50 is 60 nM.

Take `COc1cc(C(=O)N2C[C@H]3CC[C@@H]2[C@@H]3N)cc2nc(-c3cc4cccnc4n3CC3CC3)n(CC3CN(c4nccnc4C#N)C3)c12` [Example 15, 3-[3-({5-[(1R,4R,7R)-7-amino-2-azabicyclo[2.2.1]heptane-2-carbonyl]-2-[1-(cyclopropylmethyl)-1H-pyrrolo[2,3-b]pyridin-2-yl]-7-methoxy-1H-1,3-benzodiazol-1-yl}methyl)azetidin-1-yl]pyrazine-2-carbonitrile]: the IC50 came out at 47 nM.

On to `N[C@@H]1C2CCC1N(C(=O)c1cc(F)c3c(c1)nc(-c1cc4cccnc4n1CC1CC1)n3CC1CN(C(=O)c3ccccc3)C1)C2` (stereo partly drawn) [Example 439, (7R)-2-{1-[(1-benozylazetidin-3-yl)methyl]-2-[1-(cyclopropylmethyl)-1H-pyrrolo[2,3-b]pyridin-2-yl]-7-fluoro-1H-1,3-benzodiazol-5-carbonyl}-2-azabicyclo[2.2.1]heptan-7-amine], for which the half-inhibitory concentration (IC50) worked out at 36 nM.

Regarding `COc1cc(C(=O)N2C[C@H]3CC[C@@H]2[C@@H]3N)cc2nc(-c3cc4ccccc4n3CC3CC3)n(C[C@H]3CCN(c4ccnc(C5CC5)n4)C3)c12` [Example 227, (1R,4R,7R)-2-{2-[1-(cyclopropylmethyl)-1H-indo1-2-yl]-1-{[(3S)-1-(2-cyclopropylpyrimidin-4-yl)pyrrolidin-3-yl]methyl}-7-methoxy-1H-1,3-benzodiazole-5-carbonyl}-2-azabicyclo[2.2.1]heptan-7-amine], the 50% inhibitory concentration (IC50) was 41 nM.

As for `COc1cc(C(=O)N2C[C@H]3CC[C@@H]2[C@@H]3N)cc2nc(-c3cc4cc(Cl)ccc4n3C)n(CC3CN(c4ccnc(C)n4)C3)c12` [Example 61, (1R,4R,7R)-2-[2-(5-chloro-1-methyl-1H-indol-2-yl)-7-methoxy-1-{[1-(2-methylpyrimidin-4-yl)azetidin-3-yl]methyl}-1H-1,3-benzodiazole-5-carbonyl]-2-azabicyclo[2.2.1]heptan-7-amine], the IC50 stood at 187 nM.

Take `COc1cc(C(=O)N2C[C@H](N)C[C@@H](F)C2)cc2nc(-c3cc4cccnc4n3CC3CC3)n(Cc3cnn(-c4ccc(C#N)cn4)c3)c12` [Example 386, 6-[4-({5-[(3R,5R)-3-amino-5-fluoropiperidine-1-carbonyl]-2-[1-(cyclopropylmethyl)-1H-pyrrolo[2,3-b]pyridin-2-yl]-7-methoxy-1H-1,3-benzodiazol-1-yl}methyl)-1H-pyrazol-1-yl]pyridine-3-carbonitrile]: the IC50 amounted to 42 nM.

On to `COc1cc(C(=O)N2C[C@H]3CC[C@@H]2[C@@H]3N)cc2nc(-c3cc4cccnc4n3CC3CC3)n(CC3CN(c4ccnc(C#N)c4)C3)c12` [Example 31, 4-[3-({5-[(1R,4R,7R)-7-amino-2-azabicyclo[2.2.1]heptane-2-carbonyl]-2-[1-(cyclopropylmethyl)-1H-pyrrolo[2,3-b]pyridin-2-yl]-7-methoxy-1H-1,3-benzodiazol-1-yl}methyl)azetidin-1-yl]pyridine-2-carbonitrile], for which the IC50 came out at 85 nM.

For `COc1cc(C(=O)N2C[C@H]3CC[C@@H]2[C@@H]3N)cc2nc(-c3cc4cccnc4n3CC3CC3)n(CC3CN(c4cncnc4)C3)c12` [Example 27, (1R,4R,7R)-2-{2-[1-(cyclopropylmethyl)-1H-pyrrolo[2,3-b]pyridin-2-yl]-7-methoxy-1-{[1-(pyrimidin-5-yl)azetidin-3-yl]methyl}-1H-1,3-benzodiazole-5-carbonyl}-2-azabicyclo[2.2.1]heptan-7-amine], the IC50 came out at 72 nM.

As to `COc1cc(C(=O)N2CC3CCC2[C@@H]3N)cc2nc(-c3cc4ccccc4n3CC3CC3)n(C[C@H]3CCN(c4ccnc(C#N)n4)C3)c12` (stereo partly drawn) [Example 223, 4-[(3S)-3-({5-[(1R,4R,7R)-7-amino-2-azabicyclo[2.2.1]heptane-2-carbonyl]-2-[1-(cyc1opropylmethyl)-1H-indo1-2-yl]-7-methoxy-1H-1,3-benzodiazo1-1-yl}methyl)pyrrolidin-1-yl]pyrimidine-2-carbonitrile], the IC50 was 18 nM.

As to `COc1cc(C(=O)N2CC3CCC2[C@@H]3N)cc2nc(-c3csc4ccc(Cl)cc34)n(CC3CN(c4cncc(C#N)c4)C3)c12` (stereo partly drawn) [Example 316], the IC50 came to 1150 nM.

On to `COc1cc(C(=O)N2C[C@H]3CC[C@@H]2[C@@H]3N)cc2nc(-c3cc4ccccc4n3C)n(CC3CN(c4ncccn4)C3)c12` [Example 48, (1R,4R,7R)-2-[7-methoxy-2-(1-methyl-1H-indol-2-yl)-1-{[1-(pyrimidin-2-yl)azetidin-3-yl]methyl}-1H-1,3-benzodiazole-5-carbonyl]-2-azabicyclo[2.2.1]heptan-7-amine], for which the IC50 came out at 122 nM.

Turning to `COc1cc(C(=O)N2CC3CCC2[C@@H]3N)cc2nc(-c3cc4cccnc4n3CC3CC3)n(CC3CN(C(=O)c4ccccc4Cl)C3)c12` (stereo partly drawn) [Example 428, (7R)-2-(1-{[1-(2-chlorobenzoyl)azetidin-3-yl]methyl}-2-[1-(cyclopropylmethyl)-1H-pyrrolo[2,3-b]pyridin-2-yl]-7-methoxy-1H-1,3-benzodiazole-5-carbonyl)-2-azabicyclo[2.2.1]heptan-7-amine], the IC50 stood at 28 nM.

As to `COc1cc(C(=O)N2CC3CCC2[C@@H]3N)cc2nc(-c3cc4ccccc4n3CC3CC3)n(Cc3cnn(-c4cnccn4)c3)c12` (stereo partly drawn) [Example 358, (7R)-2-{2-[1-(cyclopropylmethyl)-1H-mdol-2-yl]-7-methoxy-1-{[1-(pyrazin-2-yl)-1H-pyrazol-4-yl]methyl}-1H-1,3-benzodiazole-5-carbonyl}-2-azabicyclo[2.2.1]heptan-7-amine], the IC50 turned out to be 23 nM.

Take `COc1cc(C(=O)N2CC3CCC2[C@@H]3N)cc2nc(-c3cc4cccnc4n3CC3CC3)n(CC3CN(C(=O)[C@@H]4C[C@H]4C)C3)c12` (stereo partly drawn) [Example 128, (1R,4R,7R)-2-{2-[1-(cyclopropylmethyl)-1H-pyrrolo[2,3-b]pyridin-2-yl]-7-methoxy-1-({1-[(1R,2R)-2-methylcyclopropanecarbonyl]aze-tidin-3-yl}methyl)-1H-1,3-benzodiazole-5-carbonyl}-2-azabicyclo[2.2.1]heptan-7-amine]: the IC50 was 109 nM.

With `COc1cc(C(=O)N2C[C@H](N)C[C@@H](F)C2)cc2nc(-c3cc4cccnc4n3CC3CC3)n(Cc3cnn(-c4cccc(C)n4)c3)c12` [Example 363, (3R,5R)-1-{2-[1-(cyclopropylmethyl)-1H-pyrrolo[2,3-b]pyridin-2-yl]-7-methoxy-1-{[1-(6-methylpyridin-2-yl)-1H-pyrazol-4-yl]methyl}-1H-1,3-benzodiazole-5-carbonyl}-5-fluoropiperidin-3-amine], the IC50 came to 25 nM.

As to `CCc1ccccc1-c1nc2cc(C(=O)N3C[C@H]4CC[C@@H]3[C@@H]4N)cc(OC)c2n1CC1CN(c2ccnc(C#N)n2)C1` [Example 319, 4-[3-({5-[(1R,4R,7R)-7-amino-2-azabicyclo[2.2.1]heptane-2-carbonyl]-2-(2-ethylphenyl)-7-methoxy-1H-1,3-benzodiazol-1-yl}methyl)azetidin-1-yl]pyrimidine-2-carbonitrile], the IC50 turned out to be 1300 nM.

In the case of `COc1cc(C(=O)N2C[C@H]3CC[C@@H]2[C@@H]3N)cc2nc(-c3cc4cccnc4n3CC3CC3)n(C3CCN(C(=O)c4cnc(C#N)nc4)CC3)c12` [Example 229, 5-(4-{5-[(1R,4R,7R)-7-amino-2-azabicyclo[2.2.1]heptane-2-carbonyl]-2-[1-(cyclopropylmethyl)-1H-pyrrolo[2,3-b]pyridin-2-yl]-7-methoxy-1H-1,3-benzodiazol-1-yl}piperidine-1-carbonyl)pyrimidine-2-carbonitrile], the IC50 was 219 nM.

Take `COc1cc(C(=O)N2C[C@H]3CC[C@@H]2[C@@H]3N)cc2nc(-c3cc4cccnc4n3CC3CC3)n(CC3CN(c4cncc(C#N)n4)C3)c12` [Example 3, 6-(3-((5-((1R,4R,7R)-7-amino-2-azabicyclo[2.2.1]heptane-2-carbonyl)-2-(1-(cyclopropylmethyl)-1H-pyrrolo[2,3-b]pyridin-2-yl)-7-methoxy-1H-benzo[d]imidazol-1-yl)methyl)azetidin-1-yl)pyrazine-2-carbonitrile]: the IC50 was 55 nM.

On to `COc1cc(C(=O)N2C[C@H]3CC[C@@H]2[C@@H]3N)cc2nc(-c3cc4cccnc4n3CC3CC3)n(C3CN(C(=O)c4ccc(Cl)nc4)C3)c12` [Example 99, (1R,4R,7R)-2-{1-[1-(6-chloropyridine-3-carbonyl)azetidin-3-yl]-2-[1-(cyclopropylmethyl)-1H-pyrrolo[2,3-b]pyridin-2-yl]-7-methoxy-1H-1,3-benzodiazole-5-carbonyl}-2-azabicyclo[2.2.1]heptan-7-amine], for which the IC50 came out at 111 nM.

With `COc1cc(C(=O)N2C[C@H]3CC[C@@H]2[C@@H]3N)cc2nc(-c3cc4cccnc4n3CC3CC3)n(CC3CN(c4ncncc4C#N)C3)c12` [Example 37, 4-[3-({5-[(1R,4R,7R)-7-amino-2-azabicyclo[2.2.1]heptane-2-carbonyl]-2-[1-(cyclopropylmethyl)-1H-pyrrolo[2,3-b]pyridin-2-yl]-7-methoxy-1H-1,3-benzodiazol-1-yl}methyl)azetidin-1-yl]pyrimidine-5-carbonitrile], the IC50 is 93 nM.

Regarding `COC(=O)N[C@H]1C[C@@H](n2c(-c3cc4cccnc4n3CC3CC3)nc3cc(C(=O)N4CC5CCC4[C@@H]5N)cc(OC)c32)C1` (stereo partly drawn) [Example 301, methyl N-[(1s,3s)-3-{5-[(1R,4R,7R)-7-amino-2-azabicyclo[2.2.1]heptane-2-carbonyl]-2-[1-(cyclopropylmethyl)-1H-pyrrolo[2,3-b]pyridin-2-yl]-7-methoxy-1H-1,3-benzodiazol-1-yl}cyclobutyl]carbamate], the IC50 stood at 1000 nM.
